{"source": "patent US6875571B2", "about": "“NF-AT polypeptides and polynucleotides and screening methods for immunosuppressive agents” (The Board of Trustees of the Leland Stanford Junior …, priority 1991, dated 2005)", "molecules": {"B1": {"name": "NF-ATc: human cytosolic NF-AT subunit, protein of 716 amino acids (SEQ ID NO: 38), expressed from cDNA (protein)", "chain": "MPSTSFPVPSKFPLGPAAAVFGRGETLGPAPRAGGTMKSAEEEHYGYASSNVSPALPLPTAHSTLPAPCHNLQTSTPGIIPPADHPSGYGAALDGCPAGYFLSSGHTRPDGAPALESPRIEITSCLGLYHNNNQFFHDVEVEDVLPSSKRSPSTATLSLPSLEAYRDPSCLSPASSLSSRSCNSEASSYESNYSYPYASPQTSPWQSPCVSPKTTDPEEGFPRGLGACTLLGSPQHSPSTSPRASVTEESWLGARSSRPASPCNKRKYSLNGRQPPYSPHHSPTPSPHGSPRVSVTDDSWLGNTTQYTSSAIVAAINALTTDSSLDLGDGVPVKSRKTTLEQPPSVALKVEPVGEDLGSPPPPADFAPEDYSSFQHIRKGGFCDQYLAVPQHPYQWAKPKPLSPTSYMSPTLPALDWQLPSHSGPYELRIEVQPKSHHRAHYETEGSRGAVKASAGGHPIVQLHGYLENEPLMLQLFIGTADDRLLRPHAFYQVHRITGKTVSTTSHEAILSNTKVLEIPLLPENSMRAVIDCACILKLRNSDIELRKGETDIGRKNTRVRLVFRVHVPQPSGRTLSLQVASNPIECSQRSAQELPLVEKQSTDSYPVVGGKKMVLSGHNFLQDSKVIFVEKAPDGHHVWEMEAKTDRDLCKPNSLVVEIPPFRNQRITSPVHVSFYVCNGKRKRSQYQRFTYLPANGNAIFLTVSREHERVGCFF", "modifications": "human"}}, "key": {"[1]": {"system": "NF-AT", "experiment": "Gel mobility shift assay of NF-AT DNA binding activity in extracts of treated Jurkat cells", "assay_type": "cell-based, human", "protocol": "Nuclear extracts were made according to the procedures of Ohlsson and Edlund (Cell 45:35 (1986)). Briefly, nuclei were extracted with 0.3 M (NH4)2SO4 and the fraction that contained the nuclear proteins was precipitated with 0.2 g/ml (NH4)2SO4 and dialyzed for 4 h. at 4° C. The NF-AT binding site of the IL-2 enhancer (−290 and −263) was used as a probe for binding activity. The binding experiment was carried out essentially as described in Shaw, J. P. Science 241:202-205 (1988)).\nNFATZ Jurkat cells were pretreated with 100 μM anisoymycin (Sigma), a protein synthesis inhibitor, for 30 minutes before stimulating the cells. Conditions for activating the cells and preparing nuclear and cytoplasmic extracts are described in Example 3.\n(§1) NFATZ Jurkat cells and JK12/90.1 cells (a gift from N. Shastri) were stimulated for 2 hours with 20 ng/ml PMA and 2 μM ionomycin. […] Nuclear extracts were prepared as described previously with modifications. Cytoplasmic extracts were made from the same cells as the nuclear extracts. Following lysis of the cells with buffer A [10 mM Hepes (pH 7.8), 15 mM Kcl, 2 mM MgCl2, 1 mM DTT, 0.1 mM EDTA, 0.1 mM PMSF] plus 0.05% NP-40, and pelleting of the nuclei, the cytoplasmic fraction was removed and stabilized with 10% (vol/vol) glycerol and 1/10 volume of buffer B [0.3 M Hepes (pH 7.8), 1.4 M Kcl, and 30 mM MgCl2]. The cytoplasmic extract was centrifuged at 200,000 g for 15 minutes. An equal volume of 3 M (NH4)2SO4 (pH 7.9) was added to the supernatant, and precipitated proteins were pelleted at 100,000 g for 10 minutes. The pelleted cytoplasmic proteins were resuspended in buffer C [50 mM Hepes (pH 7.8), 50 mM KCl, 1 mM DTT, 0.1 mM EDTA, 0.1 mM PMSF, 10% (vol/vol) glycerol] and desalted by passage over a P6DG column (BioRad). Protein concentrations were determined using a BioRad protein assay kit. To assess the completeness of the nuclear and cytoplasmic fractionation, we assayed for Oct-1 (a constitutive nuclear located DNA binding protein) binding activity and β-galactosidase (cytoplasmic localized) enzyme activity. […]"}, "[2]": {"system": "nuclear component of NF-AT", "experiment": "Reconstitution of NF-AT binding: synthesis of the nuclear component", "assay_type": "cell-based, human", "settings": "PMA/ionomycin-stimulated cells", "protocol": "as §1"}, "[3]": {"system": "NF-AT", "experiment": "In vitro transcription directed by multimerized NF-AT binding sites (G-less) by nuclear extracts of treated Jurkat cells", "assay_type": "cell-based, human", "settings": "nuclear extracts of stimulated/FK506-treated cells, 10 ng/ml", "protocol": "The effect of FK506 on the ability of NF-AT to direct transcription was tested by preparing nuclear extracts from stimulated or stimulated/FK506-treated cells and testing their ability to transcribe a G-less cassette in which transcription was dependent upon three NF-AT sites located within a synthetic promoter.\nPromoter constructs, nuclear extracts and transcription reactions were prepared as described. NFATZ Jurkat cells, derived from a human T cell leukemia, were stimulated with […] PMA (Sigma), 2 μM ionomycin (Calbiochem) for 2 hours. FK506 was used at 10 ng/ml and added five minutes prior to the addition of PMA and ionomycin. […] Transcription was quantitated using a radioanalytic imaging system (AMBIS). […]\nIn general, transcription reactions (20 μl) contained 40 μg/ml of circular DNA template [400 ng of the test construct, 40 ng of the AdMLP G-less construct, and 360 ng of poly dI-dC (Pharmacia)] and between 3-5 mg/ml nuclear protein extract in a buffer containing 25 mM Hepes (pH 7.6), 50 mM KCl, 6 mM MgCl2, 0.6 mM each of ATP and CTP, 7 μM UTP, 7 μCi [a-^32P] […] The pellets were rinsed with 70% ethanol, air dried, and resuspended in 10 μl of loading dye (90% formamide, 0.01% xylene cyanol, and 0.01% bromophenol blue in 1×TBE.) The transcripts were analyzed on 6% denaturing polyacrylamide gels. […]"}, "[4]": {"system": "NFATZ Jurkat cells and JK12/90.1 cells", "experiment": "Toxic effects on the stimulated cells", "assay_type": "cell-based", "settings": "FK506 100 ng/ml or CsA 500 ng/ml, five minutes prior to PMA and ionomycin, 2 hours"}, "[5]": {"system": "NF-ATc", "experiment": "Western blot mobility of epitope tagged NF-ATc expressed in Jurkat cells", "assay_type": "cell-based, human", "settings": "stimulated 2 hrs, whole cell lysates", "protocol": "Whole cell lysates were analyzed by western blotting as in FIG. 13.\nThe cDNA shown in FIG. 12 was fused to the Hemophilus influenza hemaglutinin (HA) 12 amino acid epitope tag in the determined reading frame and operably linked to the SRα promoter in the vector pBJ5 (Lin et al, 1990, Science 249:677-679). The resultant construct was transiently transfected by electroporation into Jurkat human T lymphocytes, and into Cos fibroblast cells. Expression of the epitope-tagged NF-ATc protein was determined by Western blotting of whole cell extracts prepared from the transfected cells, using an antibody (12CA5, Berkeley Antibody Co., CA) that detects the HA epitope.\nPost-translational modification of NF-ATc was investigated in cells treated with agents that activate PKC or increase intracellular Ca++. […] Whole cell lysates were analyzed by western blotting as in FIG. 13. […] This is consistent with a dephosphorylation event, possibly by direct action of calcineurin (Clipstone and Crabtree (1992) Nature 357: 695-697), however, any of a large number of processes could produce the observed mobility changes. There is evidence that NF-ATp is a substrate for calcineurin, however, the mobility shifts produced by phosphatase treatment of NF-ATp or NF-ATc are far greater than those observed in FIG. 19. These observations indicate that NF-ATc is not a direct substrate of calcineurin."}, "[6]": {"system": "NF-AT binding site", "experiment": "NF-AT luciferase reporter co-transfected with NF-ATc expression vector in Cos and Jurkat cells", "assay_type": "cell-based", "settings": "overexpression in Cos cells and Jurkat cells", "protocol": "(§2) The NF-ATc cDNA was operably linked to a portion of the SV40 early gene promoter and the mV transcription regulatory regions in the pBJ vector. This expression vector was co-tranfected into Jurkat and Cos cells with either a) three copies of NF-AT binding site linked to and directing transcription of luciferase (results shown in FIGS. 14A and 14B) the entire IL-2 enhancer/promoter directing transcription of luciferase (results shown in FIG. 14B). Cytosolic extracts were prepared and luciferase assays carried out by standard procedures (de Wet et al, 1987, Mol. Cell. Biol. 7:724-[…])."}, "[7]": {"system": "IL-2 promoter", "experiment": "IL-2 enhancer/promoter luciferase reporter co-transfected with NF-ATc expression vector in Cos cells", "assay_type": "cell-based", "settings": "overexpression in Cos cells", "protocol": "as §2"}}}
{"molecule": "C=CC[C@@H]1/C=C(\\C)C[C@H](C)C[C@H](OC)[C@H]2O[C@@](O)(C(=O)C(=O)N3CCCC[C@H]3C(=O)O[C@H](/C(C)=C/[C@@H]3CC[C@@H](O)[C@H](OC)C3)[C@H](C)[C@@H](O)CC1=O)[C@H](C)C[C@@H]2OC", "note": "[FK506]", "values": [{"measurement": "reduction of NF-AT DNA-binding activity in the extracts", "setting": "[1]; nuclear extracts of stimulated/FK506-treated cells, 10 ng/ml", "value": "50 to 80", "unit": "%"}, {"measurement": "synthesis of the nuclear component of NF-AT", "setting": "[2]", "value": "did not inhibit"}, {"measurement": "reduction of in vitro transcription directed by multimerized NF-AT binding sites", "setting": "[3]", "value": 2.5, "unit": "fold"}, {"measurement": "toxic effects to the cells", "setting": "[4]", "value": "without any toxic effects"}]}
{"molecule": "CCCCCCCCCCCCCC(=O)O[C@@H]1[C@@H](C)[C@@]2(O)[C@@H](C=C(CO)C[C@]3(O)C(=O)C(C)=C[C@@H]23)[C@@H]2C(C)(C)[C@]12OC(C)=O", "note": "[PMA, phorbol myristate acetate]", "values": [{"measurement": "mobility of NF-ATc versus non-treated cells", "setting": "[5]", "value": "slower migrating"}]}
{"molecule": "COc1ccc(C[C@H]2NC[C@H](O)[C@H]2OC(C)=O)cc1", "note": "[anisomycin]", "values": [{"measurement": "appearance of the NF-AT complex in activated T cells", "setting": "[1]; NFATZ Jurkat cells pretreated with 100 μM for 30 minutes before stimulation", "value": "completely blocked"}, {"measurement": "ability of cytoplasmic extracts from treated cells to reconstitute the NF-AT complex", "setting": "[1]; cytoplasmic extracts of cells grown with 100 μM protein synthesis inhibitor", "value": "able to reconstitute"}]}
{"molecule": "C[C@H](CCC(=O)O)C[C@H](C)C[C@H](C)C(=O)/C=C(\\O)[C@H](C)C[C@H](C)C/C=C/[C@@H](C)[C@@H](O)[C@@H](C)[C@@H](O)C[C@@H]1CC[C@@](C)([C@H]2CC[C@@](C)([C@@H](C)O)O2)O1", "note": "[ionomycin]", "values": [{"measurement": "mobility of NF-ATc versus non-treated cells", "setting": "[5]", "value": "migrates faster"}]}
{"molecule": "B1", "values": [{"measurement": "enhancement of NF-AT-dependent transcription", "setting": "[6]", "value": "50-1000 fold"}, {"measurement": "activation of the IL-2 promoter", "setting": "[7]", "value": "activates"}]}
